Consider two compounds from patent publication US6124306A, “Thioalkyl alpha substituted pyrimidine compounds” (Pharmacia & Upjohn Company, priority 1998, dated 2000).

Broadly, the IC90 is the concentration at which the effect reaches the 90% level.

One experiment relates to IIIB-WT. In words: Antiviral activity in MT4 cells, HIV-1 p24 core antigen quantitation. In kind it is cell-based. The following applies: Human immunodeficiency virus 1, IIIB, 96 h, infection 0.001-0.005 TCID50 per cell, p24 antigen at four days post-infection, concentration inhibiting 90% of p24 production. The method, then:
(§1) Assessment of the antiviral activities of the Compounds 1 and 290 versus the panel of viruses used in these studies was carried out in MT4 cells. Cells were batch infected with the appropriate virus stock at a multiplicity of infection of 0.001-0.005 TCID50 per cell for 2 hours at 37° C. The cells were washed, resuspended in RPMI/FBS and plated in 24 well dishes at a final concentration of 1.5×10^5 cells/ml to which were added 2× drug treatments prepared in RPMI/FBS. All treatment concentrations were tested in duplicate. The final DMSO concentration for all treatments or vehicle control cultures was 0.1%. At four days post-infection culture fluid samples were collected for HIV-1 p24 core antigen quantitation to determine antiviral effects. Linear regression analysis was used to calculate the drug concentration necessary to inhibit 90% (inhibitory concentration 90, IC90) of non-drug treated p24 antigen production.

The subject of the next experiment is MF-delavirdine (P236L). The experiment is described as above. The experiment is classed as cell-based. As to conditions: Human immunodeficiency virus 1, MT4, 96 h, read-out: MF-delavirdine (P236L) IC90 (μM). The method, then:
as §1

For `CSc1cc(N)nc(S[C@@H](C)c2cc3ccoc3cn2)n1` [Compound #1], the figures for the 90% effect concentration (IC90) in the experiment with IIIB-WT and in the experiment with MF-delavirdine (P236L) were 8 nM and 0.02 µM, respectively.

With `CSc1cc(N)nc(S[C@@H](C)c2cc3c(C)coc3cn2)n1` [Compound #290, (S)-(-)-4-Amino-6-methylthio-2-(1-(3-methylfuro[2,3-c]pyridine-5-yl)ethyl)thio-pyrimidine], the IC90 in the experiment on IIIB-WT amounted to 4 nM; in the experiment on MF-delavirdine (P236L) it was 0.02 µM.
